Usually melting point stands for the temperature, or range, at which the solid turns liquid.

This is an account of results in a melting point compilation (Tetko et al.; mined from patent text by program, amines drawn as free bases though some values may be those of a salt).

The structures appear in SMILES notation.

`CCc1cccc(C(C#N)c2nc(OC)cc(OC)n2)c1[N+](=O)[O-]` (stereo not given) gave a melting point of 113 to 114 °C. Under `CN(CCc1cccs1)C(=O)C12CC3CC(CC(C3)C1)C2` stands 95 to 99 °C. The result for `CCS(=O)(=O)N1CCC(NC(=O)Nc2ccc(OC(F)(F)F)cc2)CC1` reads 235 to 239 °C; that for `O=C(CCC1CCN(Cc2ccccc2)CC1)c1cc2c3c(c1)CCN3C(=O)CC2`, 103 to 104 °C.

The molecule `CC1(C(=O)N2CCC(n3c(=O)[nH]c4ccccc43)CC2)OCc2ccccc2-n2cccc21` (stereo not given) had a melting point of 208 to 210 °C.

`OC(c1cc(-c2ccc(F)cc2)c(-c2ccc(F)cc2)[nH]1)(C(F)(F)F)C(F)(F)F` showed a melting point of 112 to 113 °C. The result for `CC(Cn1ncnn1)n1nnc2cc3c(=O)n(CC4CC4)nnc3cc2c1=O` (stereo not given) reads 134 to 136 °C. The molecule `CCCN(CCC)Cc1csc(-c2ncn3c2CN(C)C(=O)c2c-3ccc(F)c2Cl)n1` yielded a melting point of 123 °C.

Molecule `CCOCc1nc2c(N)nc3c(c2n1CCCNS(C)(=O)=O)CCCC3` had a melting point of 212 to 214 °C. Consider `NS(=O)(=O)c1ncccc1C1=NOCC1`, for which the melting point lay within 155 to 156 °C. The result for `CCn1nc(OCCCc2ccc(OC(C)C)cc2OCc2ccc(C(F)(F)F)cc2)cc1CCC(=O)O` reads 75 to 76 °C; that for `Cc1cc2cccc(N)c2cn1`, 175 °C. The molecule `O=CC(CC(=O)O)NC(=O)C1CCCN2C(=O)CCC(NC(=O)CCc3ccccc3)C(=O)N12` (stereo not given) yielded a melting point of 96 to 97 °C. `COC(=O)c1ccc(OC2=C3N=C4CCCCC4=C3C(Cc3ccc(C)cc3)C=C2)o1` (stereo not given): the melting point was 80 to 81 °C. `O=C(Cc1c[nH]c2ccccc12)Nc1ccccc1C(=O)O` registered a melting point of 205 to 207 °C.

Molecule `CN1CCN(c2ccc(Nc3ncc4ccc(-c5cccc6c5OCCO6)n4n3)cc2)CC1` had a melting point of 212 to 213 °C.

Turning to `COC(=O)c1cc(NC=O)ccn1`, the melting point is 185 to 186 °C.

`O=c1cc(C=Cc2ccc(Cl)cc2)oc(-c2ccccc2)c1`: the melting point was in the range of 169 to 171 °C. Under `FC(F)(F)c1ccc2sc(C3=CCN(Cc4ccccc4)CC3)nc2c1` stands 124 to 125 °C; under `CC1=CC(c2cccc(Cl)c2)C2=C(CC(C)(C)CC2=O)N1` (stereo not given), 183 to 185 °C; under `CC1(C)COC(=O)N1c1nc(-c2sc(C#N)cc2Br)cs1`, 230 to 234 °C. Under `CCOc1ccc(C(C)=O)cc1C(=O)Nc1c(C)cccc1C(N)=O` stands 214 to 216 °C; under `CCCn1c(=O)c2[nH]c(C34CC5CC(CC(C5)C3)C4)nc2n(CCC)c1=O`, 169 to 171 °C. Under `Cc1cn(C)c2c1N(C(=O)CN1CCCC1)c1ccccc1NC2=O` stands 210 to 212 °C; under `COC(=O)c1cc2nc(C)[nH]c2cc1C(=O)OC`, 151 to 152 °C; under `CC1(Cc2ccc3c(c2)OCCO3)CN(C(c2ccccc2)c2ccccc2)CCN1` (stereo not given), 144 °C. `Cc1cc2c3c(c1)C(=O)C(=O)N3CCC2` gave a melting point of 188 °C.

Molecule `CS(=O)(=O)C(=C1CN(C(c2ccccc2)c2ccccc2)C1)c1cccc(C(F)(F)F)c1` showed a melting point of 178 °C. The result for `CC(C)C(NC(=O)c1ccc(C(=O)NCC(=O)O)cc1)C(=O)N(CC(=O)NC(C(=O)C(F)(F)F)C(C)C)C1Cc2ccccc2C1` (mixture of isomers) reads 88 to 91 °C; that for `O=C(Nc1ccc2ccc(Br)nc2n1)c1ccc(F)cc1`, 228 °C.

As to `Cc1cc2nc3ccc(C(N)=O)cn3c(=O)c2s1`, the melting point lay within 375 to 377 °C. Under `COc1cc2oc(=O)c(CCO)c(C)c2c(OC)c1OC` stands 95 to 97 °C. `CC(=O)NCc1ccc2c(c1)N(C1CCNCC1)CC2` gave a melting point of 165 to 167 °C. The result for `COc1cc(C(=O)NS(=O)(=O)c2ccccc2)ccc1Cc1cn(C)c2ccc(NC(=O)OC3CCCC3)cc12` reads 125 to 130 °C; that for `CNC(CC(C)C)c1nc(-c2ccc3c(c2)Nc2ccccc2S3)cs1` (stereo not given), 146 to 148 °C; that for `O=C(N[C@@H]1CCNC[C@H]1O)c1ccccc1` (relative stereo), 210 °C.

`O=C(O)c1cc(=O)c2c([nH]1)-c1ccccc1SC2`: the melting point lay in the range of 256 to 257 °C. For the molecule `CC(=O)OCC1Cc2c(c3cccnc3n(-c3ccccc3)c2=O)O1` (stereo not given), the melting point lay in the range of 207 to 208 °C. The result for `COc1ccc(Nc2ccnc3nc(CO)ccc23)cc1` reads 275 to 281 °C; that for `CCOc1ccc2c(c1)n(C1CCCCC1)c(=O)n2S(=O)(=O)c1ccc(C(=O)NC23CC4CC(CC(C4)C2)C3)cc1OC`, 228 °C; that for `CC(C)c1ccc(Oc2ccc(C(=O)C=CC(=O)O)cc2)cc1`, 133 to 134 °C.

Consider `CCCCC1(Cn2ccnc2)SCCS1`, for which the melting point lay in the range of 131 to 135 °C.

`COC(=O)CNC(=O)NCCCCC1CCSS1` (stereo not given) had a melting point of 62 to 64 °C. The result for `[N-]=[N+]=NCCO/N=C(\C(=O)O)c1csc(N)n1` reads 180 °C.

As to `CCC(Cl)CCC(=O)c1cc(OC)c(OC)cc1F` (stereo not given), the melting point was 81 to 82 °C. The result for `O=C(O)c1cn(C2CC2)c2c(F)c(N3CC(O)C3)c(F)cc2c1=O` reads 286 to 288 °C. The result for `CCCCn1nnnc1-c1c(O)ccc(-c2cccc(C(=O)OC)c2)c1O` reads 93 to 97 °C. The result for `CC1Sc2c(C(=O)O)c(=O)c3cc(F)c(N4CCC(N)C4)c(Cl)c3n21` (stereo not given) reads > 300 °C. Turning to `CCOC(=O)C(=O)Nc1cccc(N)c1C#N`, the melting point lay in the range of 133 to 136 °C. Regarding `Cc1c(NC(=O)CC(C)(C)C)c(C)c2c(c1C(=O)O)OCC2c1ccc(C(C)C)cc1` (stereo not given), the melting point was in the range of 194 to 195 °C. Under `COC(=O)c1ccc(OCC(=O)c2cc3cc(Cl)ccc3o2)cc1` stands 145 to 147 °C. Under `Cc1nnc2n1-c1ccc(C#CCn3ccc4ccccc43)cc1C(c1ccccc1F)=NC2` stands 167 to 169 °C; under `CCOC(=O)c1snc(OCC)c1Br`, 40 to 43 °C. `Cc1ccc(F)c2c1N(CC1CCCO1)C(=O)C21COc2cc3c(cc21)CCO3` (stereo not given) came in with a melting point of 175 to 176 °C.

The molecule `O=C1CCC(O)(c2ccc3c(c2)OCO3)CC1` displayed a melting point of 162 to 164 °C. Under `CCOC(=O)C(=CNc1cc([N+](=O)[O-])ccc1O)C(=O)c1cc(F)c(F)c(F)c1F` stands 222 °C; under `O=C(NCCO)c1ccc(C(=O)N2CCN(CCO)CC2)nc1`, 126 to 128 °C. Under `CCOC(=O)c1cc(=O)c2c(OCC(O)COc3cccc(O)c3C(C)=O)cccc2o1` (stereo not given) stands 145 to 148 °C; under `COC(=O)Nc1cccc(OCC(O)CN(Cc2ccccc2)C(C)(C)C)c1O` (stereo not given), 130 to 133 °C. Turning to `C=CCOC(=O)c1cccc(C2=Nc3cc(C)c(-c4cccc(CF)c4)cc3NC(=O)C2)c1`, the melting point was in the range of 226 to 228 °C. Under `OCc1cc(Br)cnc1Cl` stands 86.7 to 87.5 °C. The result for `COC(=O)c1cc2c(cc1O)OCO2` reads 100 to 101 °C. Under `CN1C(=O)C2(COc3cc4c(cc32)OCCO4)c2c(C(=O)NC3CC3)cccc21` (stereo not given) stands 127 to 128 °C; under `Nc1ncnc2c1nc(COCP(=O)(O)O)n2CCC1CCCCC1`, > 250 °C. `CC(C)c1nc2ccccn2c(=O)c1-c1ccc(Cl)cc1` yielded a melting point of 98 to 100 °C. Under `CC#CC(C)(C)NC(=O)C(CC)Oc1cncc(Cl)c1` (stereo not given) stands 87 to 89 °C. The result for `Cc1cn2ccnc(Cl)c2n1` reads 128 to 130 °C; that for `CCc1cc(Oc2cccnc2)c(S(C)(=O)=O)cc1C(=O)N=C(N)N`, 219 to 223 °C. The result for `COc1ccc(N(C)CC(=O)O)c(C(=O)O)c1` reads 196 °C; that for `CCCC1=C(C)C(=O)c2oc(Cc3ccc(OC)cc3)c(C)c2C1=O`, 114 °C. Molecule `COC(=O)Cc1ccc(OCCNC(=O)C2Cc3ccccc3N2S(=O)(=O)c2ccc(-c3cccc(C(F)(F)F)c3)c(Cl)c2)cc1` (stereo not given) had a melting point of 60 °C.

`CCC(=O)N(CC)c1cccc(-c2ccnc3c(C(=O)c4ccccc4)cnn23)c1` had a melting point of 194 to 195 °C. Under `CS(=O)c1ccc(-c2oncc2CCCO)cc1` (stereo not given) stands 73 to 74 °C.

For the molecule `O=C1NC(=S)NC(=O)C1c1ccccc1F`, the melting point was > 240 °C. Molecule `CC(=O)N(CCCC(=NNC(N)=S)c1ccccc1)C(C)C` returned a melting point of 141 to 147 °C.

`COC(=O)c1ccc(Cc2cc3cc(Cl)ccc3[nH]2)cc1`: the melting point turned out to be 118 °C.

As to `COC(=O)C1=Cc2cc(-c3ccc(N4CCOCC4)cc3)ccc2N(C=O)CC1`, the melting point lay in the range of 178 to 181 °C. Consider `COc1ccc(CNc2nc(NCc3ccc(OC)cc3)c3[nH]nc(C(C)C)c3n2)cc1`, for which the melting point is 60 to 85 °C. Under `CN1CCN(c2cc3nc(C(C)(C)C)sc3cc2N=C=O)CC1` stands 124 to 126 °C. Under `O=C(CNC(=O)OCc1ccccc1)OCc1ccccc1` stands 72 °C; under `CCOC(=O)c1ncn(-c2nncs2)c1Cl`, 184 to 185 °C. The result for `COc1ccc(-c2cc(C(=O)NCc3ccccc3)c(=O)n(C)n2)cc1` reads 145 to 146 °C; that for `Cc1ccc(NC(=O)c2c(C)cccc2N)cc1`, 217 to 220 °C; that for `C#Cc1cccc(C2=CC(=O)NC2=O)c1`, 129 to 131 °C.

For `O=Cc1ccc2c3cccc4cccc(c5cccc1c52)c43`, the melting point stood at 230 °C.

`CC(=O)SCC(C(=O)NC(C)C(=O)O)C(C)c1ccc(F)cc1` (stereo not given) came in with a melting point of 93 °C. The result for `CN1c2cscc2C(=O)N(CCN2CCCCC2)c2ccccc21` reads 84 to 88 °C. Molecule `COc1ccc2c(c1)C(NC(C)C)=C(C(N)=O)S2=O` (stereo not given) registered a melting point of 194 °C. Under `CCOC(=O)C1=CC=C2C(=CNN2CC)N1NN=C(C)CC#N` stands 190 to 191 °C; under `CCOC(=O)c1ncc2[nH]c3ccc(S(=O)(=O)N(C)C)cc3c2c1COC`, 191 to 193 °C.
